Test results taken from patent US11147272B2, “Pyridone compounds and agricultural and horticultural fungicides comprising the same as active ingredients” (MITSUI CHEMICALS AGRO, INC., priority 2017, dated 2021).

What was measured:
Botrytis cinerea = assay: Test Example B: Gray mold on tomato; conditions: for Test B control value class: class of control value
Alternaia brassicicola = assay: Test Example C: Alternaria sooty spot on cabbage; format: in vivo; conditions: for Test C control value class: class of control value
Excerpt: Seeds of a test plant (cabbage variety: Shikidori) were planted and cultivated until the cotyledons extended.
<Control Value> Control value=100{1−(n/3)}

Puccinia recondita = assay: Test Example E: Brown rust on wheat; format: in vivo; conditions: for Test E control value class: class of control value
Magnaporthe grisea = assay: whole plant or invertebrate; format: in vivo; conditions: for Test A control value class: class of control value
Plasmopara viticola = assay: Test Example G: Downy mildew on vine; conditions: for Test G control value: 7 to 10 days after inoculation; for Test G control value class: Downy mildew on vine (Neomuscat), 2.5 ml/pot, assessed 7 to 10 days after inoculation
Phytophthora infestans = assay: whole plant or invertebrate; format: in vivo; conditions: for Test F control value class: class of control value
[1] = tested on: Colletotrichum orbiculare; assay: Test Example H: Anthracnose on cucumber; conditions: for Test H control value: 6 to 10 days after inoculation; for Test H control value class: Anthracnose on cucumber (Sagami Hanjiro), 2.5 ml/pot, assessed 6 to 10 days after inoculation
[2] = tested on: Blumeria graminis f. sp. hordei; assay: Test Example D: Powdery mildew on barley; conditions: for Test D control value class: class of control value
[3] = 250 ppm drug solution sprayed on test plant
[4] = 250 ppm drug solution sprayed (2.5 ml/pot), grape Neomuscat
[5] = 250 ppm drug solution sprayed (2.5 ml/pot), cucumber Sagami Hanjiro
[6] = Gray mold on tomato, control value class
[7] = Alternaria sooty spot on cabbage, control value class
[8] = Brown rust on wheat, control value class
[9] = Blast on rice, control value class
[10] = Downy mildew on vine, 250 ppm spray
[11] = Late blight on tomato, control value class
[12] = Anthracnose on cucumber, 250 ppm spray
[13] = Powdery mildew on barley, control value class
[14] = Alternaria sooty spot on cabbage

CCCc1ccc(=O)n(CC)c1-c1c(F)cc(O)cc1F [compound 438]
Test B control value (Botrytis cinerea; [3]): H (more than 50% control value)
Test C control value (Alternaia brassicicola; [3]): H (more than 50% control value)
Test E control value (Puccinia recondita; [3]): H (more than 50% control value)
Test A control value (Magnaporthe grisea; [3]): L (50% or less control value)
Test G control value (Plasmopara viticola; [4]): L (50% or less control value)
Test F control value (Phytophthora infestans; [3]): L (50% or less control value)
Test H control value [1, 5]: L (50% or less control value)
Test D control value [2, 3]: L (50% or less control value)

CCCc1cc(Cl)c(=O)n(CC)c1-c1c(F)cc(OC)cc1F [compound 384]
Test B control value (Botrytis cinerea; [3]): H (more than 50% control value)
Test C control value (Alternaia brassicicola; [3]): H (more than 50% control value)
Test E control value (Puccinia recondita; [3]): H (more than 50% control value)
Test A control value (Magnaporthe grisea; [3]): H (more than 50% control value)
Test G control value (Plasmopara viticola; [4]): H (more than 50% control value)
Test F control value (Phytophthora infestans; [3]): L (50% or less control value)
Test H control value [1, 5]: H (more than 50% control value)
Test D control value [2, 3]: H (more than 50% control value)

CCCC1=C(c2ccc(F)cc2Br)N(C)C(=O)CC1 [compound 341]
Test B control value (Botrytis cinerea; [6]): L (50% or less control value)
Test C control value (Alternaia brassicicola; [7]): L (50% or less control value)
Test E control value (Puccinia recondita; [8]): L (50% or less control value)
Test A control value (Magnaporthe grisea; [9]): L (50% or less control value)
Test G control value (Plasmopara viticola; [10]): L (50% or less control value)
Test F control value (Phytophthora infestans; [11]): L (50% or less control value)
Test H control value [1, 12]: H (more than 50% control value)
Test D control value [2, 13]: L (50% or less control value)

CCn1c(-c2ccccc2Cl)c(CC(C)C)cc(Cl)c1=O [compound 265]
Test B control value (Botrytis cinerea; [6]): H (more than 50% control value)
Test C control value (Alternaia brassicicola; [7]): H (more than 50% control value)
Test E control value (Puccinia recondita; [8]): H (more than 50% control value)
Test A control value (Magnaporthe grisea; [9]): H (more than 50% control value)
Test G control value (Plasmopara viticola; [10]): H (more than 50% control value)
Test F control value (Phytophthora infestans; [11]): L (50% or less control value)
Test H control value [1, 12]: H (more than 50% control value)
Test D control value [2, 13]: H (more than 50% control value)

CCn1c(-c2c(F)cc(OC)cc2F)c(C(C)(OC)C(C)C)cc(Br)c1=O (centres unmarked) [compound 467]
Test B control value (Botrytis cinerea; [3]): H (more than 50% control value)
Test C control value (Alternaia brassicicola; [3]): H (more than 50% control value)
Test E control value (Puccinia recondita; [3]): H (more than 50% control value)
Test A control value (Magnaporthe grisea; [3]): H (more than 50% control value)
Test G control value (Plasmopara viticola; [4]): H (more than 50% control value)
Test F control value (Phytophthora infestans; [3]): L (50% or less control value)
Test H control value [1, 5]: H (more than 50% control value)
Test D control value [2, 3]: H (more than 50% control value)

CCc1ccc(=O)n(C)c1-c1ccc(OC)cc1Cl [compound 322]
Test B control value (Botrytis cinerea; [6]): H (more than 50% control value)
Test C control value (Alternaia brassicicola; [7]): L (50% or less control value)
Test E control value (Puccinia recondita; [8]): H (more than 50% control value)
Test A control value (Magnaporthe grisea; [9]): L (50% or less control value)
Test G control value (Plasmopara viticola; [10]): L (50% or less control value)
Test F control value (Phytophthora infestans; [11]): L (50% or less control value)
Test H control value [1, 12]: H (more than 50% control value)
Test D control value [2, 13]: L (50% or less control value)

CCn1c(-c2c(F)cccc2F)c(C(O)C(C)C)cc(Br)c1=O (centres unmarked) [compound 520]
Test B control value (Botrytis cinerea; [3]): H (more than 50% control value)
Test C control value (Alternaia brassicicola; [3]): H (more than 50% control value)
Test E control value (Puccinia recondita; [3]): H (more than 50% control value)
Test A control value (Magnaporthe grisea; [3]): H (more than 50% control value)
Test G control value (Plasmopara viticola; [4]): H (more than 50% control value)
Test F control value (Phytophthora infestans; [3]): L (50% or less control value)
Test H control value [1, 5]: H (more than 50% control value)
Test D control value [2, 3]: H (more than 50% control value)

CCn1c(-c2c(F)cc(F)cc2F)c(CC(C)C)cc(C)c1=O [compound 306]
Test B control value (Botrytis cinerea; [6]): H (more than 50% control value)
Test C control value (Alternaia brassicicola; [7]): H (more than 50% control value)
Test E control value (Puccinia recondita; [8]): H (more than 50% control value)
Test A control value (Magnaporthe grisea; [9]): H (more than 50% control value)
Test G control value (Plasmopara viticola; [10]): H (more than 50% control value)
Test F control value (Phytophthora infestans; [11]): L (50% or less control value)
Test H control value [1, 12]: H (more than 50% control value)
Test D control value [2, 13]: H (more than 50% control value)

CCCCC(O)c1cc(Cl)c(=O)n(CC)c1-c1c(F)cc(F)cc1F (centres unmarked) [compound 276]
Test B control value (Botrytis cinerea; [6]): H (more than 50% control value)
Test C control value (Alternaia brassicicola; [7]): H (more than 50% control value)
Test E control value (Puccinia recondita; [8]): H (more than 50% control value)
Test A control value (Magnaporthe grisea; [9]): H (more than 50% control value)
Test G control value (Plasmopara viticola; [10]): H (more than 50% control value)
Test F control value (Phytophthora infestans; [11]): L (50% or less control value)
Test H control value [1, 12]: L (50% or less control value)
Test D control value [2, 13]: H (more than 50% control value)

CCn1c(-c2c(F)cc(OC)cc2F)c(CC(C)C)cc(Cl)c1=O [compound 42]
Test B control value class (Botrytis cinerea; Gray mold on tomato): H (more than 50% control value)
Test C control value class (Alternaia brassicicola; [14]): H (more than 50% control value)
Test E control value class (Puccinia recondita; Brown rust on wheat): H (more than 50% control value)
Test A control value class (Magnaporthe grisea; Blast on rice): H (more than 50% control value)
Test G control value class (Plasmopara viticola; 250 ppm spray): H (more than 50% control value)
Test F control value class (Phytophthora infestans; Late blight on tomato): L (50% or less control value)
Test H control value class ([1]; 250 ppm spray): H (more than 50% control value)
Test D control value class ([2]; Powdery mildew on barley): H (more than 50% control value)

CCn1c(-c2ccc(OC)cc2F)c(CC(C)C)ccc1=O [compound 111]
Test B control value class (Botrytis cinerea; Gray mold on tomato): H (more than 50% control value)
Test C control value class (Alternaia brassicicola; [14]): H (more than 50% control value)
Test E control value class (Puccinia recondita; Brown rust on wheat): H (more than 50% control value)
Test A control value class (Magnaporthe grisea; Blast on rice): H (more than 50% control value)
Test G control value class (Plasmopara viticola; 250 ppm spray): H (more than 50% control value)
Test F control value class (Phytophthora infestans; Late blight on tomato): L (50% or less control value)
Test H control value class ([1]; 250 ppm spray): H (more than 50% control value)
Test D control value class ([2]; Powdery mildew on barley): H (more than 50% control value)

CCc1cc(Cl)c(=O)n(CC)c1-c1ccc(F)cc1C [compound 351]
Test B control value (Botrytis cinerea; [6]): H (more than 50% control value)
Test C control value (Alternaia brassicicola; [7]): H (more than 50% control value)
Test E control value (Puccinia recondita; [8]): H (more than 50% control value)
Test A control value (Magnaporthe grisea; [9]): L (50% or less control value)
Test G control value (Plasmopara viticola; [10]): L (50% or less control value)
Test F control value (Phytophthora infestans; [11]): L (50% or less control value)
Test H control value [1, 12]: H (more than 50% control value)
Test D control value [2, 13]: H (more than 50% control value)

CCn1c(-c2c(F)cc(F)cc2F)c(C(C)(C)C)cc(Cl)c1=O [compound 69]
Test B control value class (Botrytis cinerea; Gray mold on tomato): H (more than 50% control value)
Test C control value class (Alternaia brassicicola; [14]): H (more than 50% control value)
Test E control value class (Puccinia recondita; Brown rust on wheat): H (more than 50% control value)
Test A control value class (Magnaporthe grisea; Blast on rice): H (more than 50% control value)
Test G control value class (Plasmopara viticola; 250 ppm spray): L (50% or less control value)
Test F control value class (Phytophthora infestans; Late blight on tomato): L (50% or less control value)
Test H control value class ([1]; 250 ppm spray): L (50% or less control value)
Test D control value class ([2]; Powdery mildew on barley): L (50% or less control value)
